Assay results taken from US7138361B2, “Herbicidal heterocycles” (E. I. du Pont de Nemours and Company, priority 2000, dated 2006).

What was measured:
Assay in all cases: Test C preemergence
Assay type in all cases: in vivo
Sunflower [1] = settings: Rate 250 g/ha, scale 0 to 100, 0 no effect, 100 complete control
[2] = test system: Surinam grass (Brachiaria decumbens)
Procedure, shortened: (§1)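 Visual 0–100 rating vs controls (0 = no effect, 100 = complete control) at 12–14 d, greenhouse. Compounds in non-phytotoxic solvent + surfactant; pre: sprayed after seeding; post: 1–4-leaf plants, 2–18 cm.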

Sunflower [3] = settings: Rate 125 g/ha; scale 0 to 100, 0 no effect, 100 complete control
[4] = test system: johnsongrass (Sorghum halepense)
Procedure, shortened: as §1

[5] = test system: common ragweed (Ambrosia elatior)
Procedure, shortened: as §1

[6] = test system: yellow nutsedge (Cyperus esculentus)
Procedure, shortened: as §1

corn (Zea mays) = test system: corn (Zea mays)
Procedure, shortened: as §1

[7] = test system: woolly cupgrass (Eriochloa villosa)
Procedure, shortened: as §1

[8] = test system: pigweed (Amaranthus retroflexus)
Procedure, shortened: as §1

kochia (Kochia scoparia) = test system: kochia (Kochia scoparia)
Procedure, shortened: as §1

Nightshade = test system: Nightshade
[9] = test system: bermudagrass (Cynodon dactylon)
Procedure, shortened: as §1

[10] = test system: cocklebur (Xanthium strumarium)
Procedure, shortened: as §1

[11] = test system: morningglory (Ipomoea hederacea)
Procedure, shortened: as §1

soybean (Glycine max) = test system: soybean (Glycine max)
Procedure, shortened: as §1

[12] = test system: lambsquarters (Chenopodium album)
Procedure, shortened: as §1

[13] = test system: goosegrass (Eleusine indica)
Procedure, shortened: as §1

[14] = test system: velvetleaf (Abutilon theophrasti)
Procedure, shortened: as §1

[15] = test system: crabgrass (Digitaria sanguinalis)
Procedure, shortened: as §1

[16] = test system: giant foxtail (Setaria faberii)
Procedure, shortened: as §1

[17] = Rate 125 g/ha, scale 0 to 100, 0 no effect, 100 complete control
[18] = preemergence, Rate 62 g/ha, scale 0 to 100
[19] = preemergence, Rate 500 g/ha, visual evaluation after 12 to 14 days
[20] = preemergence, Rate 250 g/ha, scale 0 to 100, 0 no effect, 100 complete control

CCCC(C)c1ccn(C2SCN(c3cccc(C(F)(F)F)c3)C2=O)n1 (stereo not shown) [Compound 92]
Plant response rating, Sunflower (Sunflower [1]): 40 | Plant response rating, Surinam grass [2, 17]: 0 | Plant response rating, Surinam grass [2, 18]: 0 | Plant response rating (0 to 100), Surinam grass [2, 19]: 35 | Plant response rating, Surinam grass [2, 20]: 20 | Plant response rating, Sunflower (Sunflower [3]): 0 | Plant response rating, Johnsongrass [4, 17]: 65 | Plant response rating, Johnsongrass [4, 18]: 50 | Plant response rating (0 to 100), Johnsongrass [4, 19]: 100 | Plant response rating, Johnsongrass [4, 20]: 70 | Plant response rating, Ragweed, Common [5, 17]: 0 | Plant response rating, Ragweed, Common [5, 18]: 0 | Plant response rating (0 to 100), Ragweed, Common [5, 19]: 40 | Plant response rating, Ragweed, Common [5, 20]: 0 | Plant response rating, Nutsedge [6, 17]: 0 | Plant response rating, Nutsedge [6, 18]: 0 | Plant response rating (0 to 100), Nutsedge [6, 19]: 0 | Plant response rating, Nutsedge [6, 20]: 0 | Plant response rating, Corn (corn (Zea mays); [17]): 10 | Plant response rating, Corn (corn (Zea mays); [18]): 0 | Plant response rating (0 to 100), Corn (corn (Zea mays); [19]): 40 | Plant response rating, Corn (corn (Zea mays); [20]): 30 | Plant response rating, Cupgrass, Woolly [7, 17]: 10 | Plant response rating, Cupgrass, Woolly [7, 18]: 0 | Plant response rating (0 to 100), Cupgrass, Woolly [7, 19]: 50 | Plant response rating, Cupgrass, Woolly [7, 20]: 50 | Plant response rating, Pigweed [8, 17]: 0 | Plant response rating, Pigweed [8, 18]: 0 | Plant response rating (0 to 100), Pigweed [8, 19]: 50 | Plant response rating, Pigweed [8, 20]: 100 | Plant response rating, Kochia (kochia (Kochia scoparia); [17]): 40 | Plant response rating, Kochia (kochia (Kochia scoparia); [18]): 0 | Plant response rating (0 to 100), Kochia (kochia (Kochia scoparia); [19]): 100 | Plant response rating, Kochia (kochia (Kochia scoparia); [20]): 70 | Plant response rating, Nightshade (Nightshade; Rate 62 g/ha, scale 0 to 100): 0 | Plant response rating, Nightshade (Nightshade; [17]): 0 | Plant response rating, Nightshade (Nightshade; Rate 250 g/ha, scale 0 to 100, 0 no effect, 100 complete control): 20 | Plant response rating, Bermudagrass [9, 17]: 20 | Plant response rating, Bermudagrass [9, 18]: 20 | Plant response rating (0 to 100 where 0 is no effect and 100 is complete control), Bermudagrass [9, 19]: 90 | Plant response rating, Bermudagrass [9, 20]: 85 | Plant response rating, Cocklebur [10, 17]: 0 | Plant response rating, Cocklebur [10, 18]: 0 | Plant response rating (0 to 100), Cocklebur [10, 19]: 20 | Plant response rating, Cocklebur [10, 20]: 20 | Plant response rating, Morningglory [11, 17]: 0 | Plant response rating, Morningglory [11, 18]: 0 | Plant response rating (0 to 100), Morningglory [11, 19]: 0 | Plant response rating, Morningglory [11, 20]: 0 | Plant response rating, Soybean (soybean (Glycine max); [17]): 0 | Plant response rating, Soybean (soybean (Glycine max); [18]): 0 | Plant response rating (0 to 100), Soybean (soybean (Glycine max); [19]): 100 | Plant response rating, Soybean (soybean (Glycine max); [20]): 30 | Plant response rating, Lambsquarters [12, 17]: 100 | Plant response rating, Lambsquarters [12, 18]: 80 | Plant response rating (0 to 100), Lambsquarters [12, 19]: 100 | Plant response rating, Lambsquarters [12, 20]: 100 | Plant response rating, Goosegrass [13, 17]: 75 | Plant response rating, Goosegrass [13, 18]: 60 | Plant response rating (0 to 100), Goosegrass [13, 19]: 100 | Plant response rating, Goosegrass [13, 20]: 100 | Plant response rating, Velvetleaf [14, 17]: 0 | Plant response rating, Velvetleaf [14, 18]: 0 | Plant response rating (0 to 100), Velvetleaf [14, 19]: 0 | Plant response rating, Velvetleaf [14, 20]: 0 | Plant response rating, Crabgrass [15, 17]: 80 | Plant response rating, Crabgrass [15, 18]: 60 | Plant response rating (0 to 100), Crabgrass [15, 19]: 100 | Plant response rating, Crabgrass [15, 20]: 100 | Plant response rating, Foxtail, Giant [16, 17]: 0 | Plant response rating, Foxtail, Giant [16, 18]: 20 | Plant response rating (0 to 100), Foxtail, Giant [16, 19]: 100 | Plant response rating, Foxtail, Giant [16, 20]: 100
